According to patent publication US20250281629A1, “COMPOSITIONS AND METHODS FOR ANTI-PHOSPHOCHOLINE ACTIVE IMMUNOTHERAPY” (Duke University, priority 2022, published 2025):
Where no end group is shown, it is not given here. C11H22NO6P = phosphorylcholine group attached via 2-methacryloyloxyethyl phosphorylcholine

What was measured:
[1] = tested on: C57BL/6 mice; test: Serum anti-PC antibody responses of immunized mice via ELISA (PC-BSA coated); format: in vivo, mouse
Protocol: Mice and Immunizations. Female C57BL/6 mice (Envigo) age 6-10 weeks were used to initiate experiments except for the Il10^−/− colitis study where female B6.129P2-Il10^tm1Cgn/J (The Jackson Laboratory) mice age 5-7 weeks were used. While female mice were used for most experiments, age-matched male C57BL/6 mice (Envigo) were used in a one cycle acute DSS colitis model to confirm efficacy across sexes. Mice were housed at Duke University. All experimental procedures were performed on protocols (A264-18-11 and A199-21-09) approved by the Duke University Institutional Animal Care and Use Committee (IACUC). For subcutaneous immunizations, anesthetized mice were injected once behind each shoulder with 50 μL of 2 mM peptide nanofiber solution or 1×PBS. For intraperitoneal immunizations, mice were injected with 100 μL of 2 mM peptide nanofiber solution or 1×PBS. Nanofiber immunizations with adjuvant contained 10 μg CpG (ODN 1826, IAX-200-002-3001, Innaxon). For injections of only CpG, 10 μg of CpG in 100 μL 1×PBS was used. Mice were typically given three immunizations, with the specific boosting schedules stated in each figure caption, usually at weeks 0, 2, and 4, as this was determined to produce robust antibody responses in a short time frame.
(§1) Detection of Anti-PC Antibody Responses via ELISA. Anti-PC antibody responses in serum collected from the submandibular vein in mice were measured using ELISA. Briefly, plates were coated with 20 μg/mL PC-BSA (Biosearch Technologies, PC-1011-10) in 1×PBS or just 1×PBS at 4° C. overnight. The next day, the plates were washed using 1×PBST (1×PBS with 0.05% Tween 20) and then blocked three times with Superblock blocking buffer solution (Thermo Fisher, 37515). Serum diluted from 1:10^2 to 1:10^5 in 1% BSA in 1×PBST was the added to the plate and allowed to incubate for 2 h at room temperature. Anti-PC IgG was detected using HRP-conjugated Fcγ fragment-specific goat anti-mouse IgG (Jackson Immuno Research, 15-035-071). IgG subclasses and IgM anti-PC antibodies were detected using Southern Biotech HRP-conjugated goat anti-mouse antibodies (IgG1, IgG2b, IgG2c, IgG3, & IgM: 5300-05B). Area under the curve (AUC) measurements were calculated using background-subtracted absorbance values at dilutions from 1:10^2 to 1:10^5. Antibody titers were defined using an absorbance cutoff above background of 0.2 OD, where titer 2 represents an OD value greater than 0.2 at 1:10^2 dilution and so on up to titer 5 at 1:10^5 dilution.

[2] = tested on: CD4^+ T-cell depleted mice; test: Anti-PC responses in CD4+ T-cell depleted mice; format: in vivo, mouse; settings: for anti-PC IgM in the absence of CD4+ T cells: anti-CD4 antibody; for main anti-PC IgG subclass in CD4+ T cell-depleted mice: week 3
Protocol: as §1
T Cell ELISpot. T-cell responses were measured using ELISpot. Mice were euthanized 6 days after booster immunization and splenocytes were isolated using Lympholyte-M (Cedarlane, c15031). Splenocytes were stimulated with either media (negative control), Concanavalin A (ConA) (Sigma, C5275) (positive control), or PADRE peptide (1 μM) and then plated at 250,000 cells/well on IL-4 and IFN-γ capture antibody-coated 96-well ELISpot plates (Millipore, MSIPS4510). IL-4 (BD, 551878) and IFNγ (BD, 551881) detection antibodies followed by streptavidin-alkaline phosphatase (Mabtech, 3310-0) and Sigmafast BCIP/NBT (Sigma, B5655) were used to develop cell spots. The quantification of cell spots was then outsourced to Zellnet Consulting Services which uses a Zeiss KS ELISPOT reader. ELISpot counts shown represent spot counts after the subtraction of spots in the negative control wells for each sample.
CD4 T cell Depletion. Mice were given 200 μg of either anti-mouse CD4 (InVivoMAb, clone GK1.5, BioXCell, BE0003-1) or isotype control (InVivoMAb rat IgG2b isotype control anti-KLH, clone LTF-2, BioXCell, BE0090) antibodies in 100 μL InVivoPure pH 6.5 dilution buffer (BioXCell, IP0065) via i.p. injection at days −3, −1, 3, 7, 11, 15, and 19. On days 0 and 22, cells from the spleen, draining lymph nodes (axial, brachial, and inguinal), and mesenteric lymph nodes of unimmunized mice were isolated via physical separation using a 70 μm filter in order to verify CD4^+ T-cell depletion (FIGS. 11A-11E, representative flow cytometry shown in FIG. 12). The cells were treated with mouse BD Fc Block (Clone: 2.4G2) (BD Biosciences, 553142) in flow buffer on ice for 30 min and then washed and stained with antibodies against the following markers: CD4-FITC (Clone: GK1.5) (BD Biosciences, 557307), CD45-PE (Clone: 30-F11) (BioLegend, 103106), CD8a-PE-Cy7 (Clone: 53-6.7 (BD Biosciences, 552877), and CD3e-BV605 (Clone: 145-2C11) (BD Biosciences, 563004) in flow buffer for 30 min on ice. Cells were then washed in flow buffer and stained with DAPI. Flow cytometry was conducted on a BD FACSCanto II cytometer and the results were analyzed using FlowJo software. To determine the importance of PADRE T-cell epitope inclusion in immunizations, anti-CD4 or isotype control antibody-administered mice were immunized on days 0 and 14, with anti-PC antibodies measured at days 0, 7, and 22 via ELISA and T-cell responses measured on day 22 via ELISpot.

[3] = Thioflavin T (ThT) assay for β-sheets; format: physicochemical; settings: peak fluorescence intensity around 488 nm
Protocol: Thioflavin T (ThT) Assay. β-sheets were detected by Thioflavin T (ThT) (Alfa Aesar, J61043) binding and resulting fluorescence. 180 μL of 0.05 mM ThT was added to 20 μL of 2 mM nanofibers in a 96-well black plate and allowed to incubate for 1 min. Fluorescence intensity was then determined using an excitation wavelength of 440 nm and emission wavelengths from 460-600 nm at 5 nm intervals. A peak fluorescence intensity at an emission wavelength around 488 nm is indicative of β-sheets.

[4] = i.p. day 0 and 14, with PADRE-Q11 and CpG

| Substance | anti-PC antibody levels on increasing epitope content 2.5 times ([1]; 0.5 mM (25%) vs 0.2 mM (10%) PCM-Q11, i.p. with CpG) | anti-PC IgG responses, PCM-Q11 vs PC-Q11 ([1]; i.p., weeks 0, 2, 4, both coassembled with PADRE-Q11) | anti-PC IgM, isotype control vs CD4-depleted [2, 4] | total anti-PC IgG production, dependence on CD4+ T cells [2, 4] | anti-PC IgM in the absence of CD4+ T cells [2, 4] | main anti-PC IgG subclass in CD4+ T cell-depleted mice [2] | thioflavin-T binding (β-sheet fibrillar structure) [3] | antibody response against PC-BSA (serum total anti-PC IgG) ([1]; s.c. or i.p., weeks 0, 3, 11, with PADRE-Q11, PC-Q11 vs pa-PC-Q11) |
| --- | --- | --- | --- | --- | --- | --- | --- | --- |
| (C11H22NO6P)n-CCCCSGSG-QQKFQFQFEQQ-NH2 (CCCCSGSGQQKFQFQFEQQ-NH2; not fully specified; cysteine pairing not given here; also: phosphorylcholine groups (C11H22NO6P) n=1-4, attachment not placed) [PCM-Q11, linear multi-PC conjugate] | no significant change in the response elicited | significantly greater than i.p. immunization with PC-Q11 | significantly greater for PCM-Q11 immunizations when CD4^+ T cells were present | reliant on CD4^+ T cells | generated by both immunizations in the absence of CD4^+ T cells | IgG3 | bound thioflavin-T (ThT) |  |
| C11H22NO6P-CSGSG-QQKFQFQFEQQ-NH2 (C(C11H22NO6P)SGSGQQKFQFQFEQQ-NH2) [PC-Q11, phosphodiester PC-Q11] |  |  |  | reliant on CD4^+ T cells | generated by both immunizations in the absence of CD4^+ T cells | IgG3 | bound thioflavin-T (ThT) | significantly greater antibody response |
